Assay results: ChEMBL document CHEMBL4138197, “Design, synthesis and pharmacological evaluation of N-(5-chloro-2,4-dihydroxybenzoyl)-(R)-N-arylmethyl-1,2,3,4-tetrahydro-3-isoquinolinecarboxamides as potent Hsp90 inhibitors” (Eur J Med Chem, 2018)
The source made the active and inactive calls. The rule behind the calls is not given here.

What was measured:
[1] = molecular target: Heat shock protein HSP 90-alpha (Homo sapiens) (UniProt P07900); assay: Inhibition of HSP90alpha in human MDA-MB-453 cells assessed as down-regulation of HER2 levels by Western blot analysis; format: cell-based
SK-OV-3 = assay: Antiproliferative activity against human SKOV3 cells by SRB assay; format: functional, cell-based
[2] = molecular target: Heat shock protein HSP 90-alpha (Homo sapiens) (UniProt P07900); assay: Inhibition of HSP90alpha in human MDA-MB-453 cells assessed as down-regulation of C-RAF levels by Western blot analysis; format: cell-based
MDA-MB-453 [3] = assay: Induction of apoptosis in human MDA-MB-453 cells after 48 hrs by Annexin V-FITC/propidium iodide-staining based flow cytometry; format: functional, cell-based
MDA-MB-453 [4] = assay: Induction of apoptosis in human MDA-MB-453 cells assessed as increase in cleaved caspase3 activity at 0.25 uM up to 48 hrs in presence of z-VAD-fmk by Western blot analysis; format: functional, cell-based
[5] = molecular target: T1, Inhibitor of nuclear factor kappa-B kinase subunit alpha (Homo sapiens) (UniProt O15111); assay: Induction of IKKalpha association to hsp27 in human MDA-MB-453 cells at 0.25 uM after 6 hrs by immunoprecipitation and Western analysis; format: cell-based
T1 sequence (whole entry): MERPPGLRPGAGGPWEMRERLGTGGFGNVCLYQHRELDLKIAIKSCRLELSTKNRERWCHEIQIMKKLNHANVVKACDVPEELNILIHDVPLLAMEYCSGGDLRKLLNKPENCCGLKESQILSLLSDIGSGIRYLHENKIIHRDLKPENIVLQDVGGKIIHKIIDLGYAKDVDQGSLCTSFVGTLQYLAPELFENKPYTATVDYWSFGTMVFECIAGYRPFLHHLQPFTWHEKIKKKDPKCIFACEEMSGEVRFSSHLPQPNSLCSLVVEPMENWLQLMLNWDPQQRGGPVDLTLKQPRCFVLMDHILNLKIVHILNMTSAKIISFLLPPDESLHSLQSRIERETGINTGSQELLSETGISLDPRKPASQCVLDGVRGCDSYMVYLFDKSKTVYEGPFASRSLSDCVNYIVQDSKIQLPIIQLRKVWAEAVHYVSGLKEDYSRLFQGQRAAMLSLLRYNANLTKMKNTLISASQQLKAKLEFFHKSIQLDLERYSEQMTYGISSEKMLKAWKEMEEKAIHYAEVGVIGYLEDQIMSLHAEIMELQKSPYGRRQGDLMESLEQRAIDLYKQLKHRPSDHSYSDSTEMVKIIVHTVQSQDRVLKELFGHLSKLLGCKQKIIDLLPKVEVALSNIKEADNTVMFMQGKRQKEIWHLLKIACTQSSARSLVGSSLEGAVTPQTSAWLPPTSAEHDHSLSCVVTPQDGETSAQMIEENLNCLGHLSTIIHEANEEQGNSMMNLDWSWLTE

SH-SY5Y = assay: Antiproliferative activity against human SH-SY5Y cells by SRB assay; format: functional, cell-based
[6] = molecular target: Heat shock protein HSP 90-alpha (Homo sapiens) (UniProt P07900); assay: Inhibition of HSP90alpha in human MDA-MB-453 cells assessed as down-regulation of cdc2 levels by Western blot analysis; format: cell-based
[7] = molecular target: T2, MAP kinase p38 (Homo sapiens) (UniProt O15264+Q15759+Q16539+P53778); assay: Induction of p38 phosphorylation in human MDA-MB-453 cells at 0.25 uM after 48 hrs in presence of […] by Western blot analysis; format: cell-based
[8] = molecular target: T3, Heat shock protein HSP90 (Homo sapiens) (UniProt P07900+P08238); assay: Inhibition of HSP90 in human MDA-MB-453 cells assessed as downmodulation of IKKbeta expression at 0.25 uM up to 48 hrs by Western blot analysis; format: cell-based
[9] = molecular target: Heat shock protein HSP 90-alpha (Homo sapiens) (UniProt P07900); assay: Inhibition of HSP90alpha in human MDA-MB-453 cells assessed as upregulation of HSP70 levels by Western blot analysis; format: cell-based
MDA-MB-453 [10] = assay: Induction of apoptosis in human MDA-MB-453 cells assessed upregulation of bim expression at 0.25 uM by Western blot analysis; format: functional, cell-based; conditions: TDE = time-dependent effect
MDA-MB-453 [11] = assay: Induction of apoptosis in human MDA-MB-453 cells assessed as necrotic cells at 1 uM after 48 hrs by Annexin V-FITC/propidium iodide-staining based flow cytometry (reference value: 0.01%); format: functional
[12] = molecular target: T3, Heat shock protein HSP90 (Homo sapiens); assay: Inhibition of HSP90 in human MDA-MB-453 cells assessed as suppression of TNFalpha-induced NFkappaB activation by measuring reduction in IKBalpha degradation at 0.25 uM after 24 hrs by Western blot analysis; format: cell-based
[13] = molecular target: Heat shock protein HSP 90-alpha (Homo sapiens) (UniProt P07900); assay: Binding affinity to HSP90alpha in HEK293T cells assessed as induction of thermal stabilisation of HSP90alpha at 10 uM pre-incubated for 3 hrs followed by heating at 37 to 63 degC for 3 mins then subsequent cooling for 3 mins by Western blot-based CESTA relative to beta actin; format: cell-based
MDA-MB-453 [14] = assay: Cell cycle arrest in human MDA-MB-453 cells assessed as increase in accumulation at G0/G1 phase at 0.25 to 1 uM after 12 hrs by propidium iodide-staining based flow cytometry; format: functional
MDA-MB-453 [15] = assay: Induction of apoptosis in human MDA-MB-453 cells assessed as increase in cleaved PARP activity at 0.25 uM up to 48 hrs by Western blot analysis; format: functional, cell-based
MDA-MB-453 [16] = assay: Cell cycle arrest in human MDA-MB-453 cells assessed as reduction in accumulation at S phase at 0.25 to 1 uM after 12 hrs by propidium iodide-staining based flow cytometry; format: functional
[17] = molecular target: NF-kappa-B essential modulator (Homo sapiens) (UniProt Q9Y6K9); assay: Induction of IKKgamma association to hsp27 in human MDA-MB-453 cells at 0.25 uM after 6 hrs by immunoprecipitation and Western analysis; format: cell-based
NF-kappa-B essential modulator (Homo sapiens), sequence (Q9Y6K9 whole entry): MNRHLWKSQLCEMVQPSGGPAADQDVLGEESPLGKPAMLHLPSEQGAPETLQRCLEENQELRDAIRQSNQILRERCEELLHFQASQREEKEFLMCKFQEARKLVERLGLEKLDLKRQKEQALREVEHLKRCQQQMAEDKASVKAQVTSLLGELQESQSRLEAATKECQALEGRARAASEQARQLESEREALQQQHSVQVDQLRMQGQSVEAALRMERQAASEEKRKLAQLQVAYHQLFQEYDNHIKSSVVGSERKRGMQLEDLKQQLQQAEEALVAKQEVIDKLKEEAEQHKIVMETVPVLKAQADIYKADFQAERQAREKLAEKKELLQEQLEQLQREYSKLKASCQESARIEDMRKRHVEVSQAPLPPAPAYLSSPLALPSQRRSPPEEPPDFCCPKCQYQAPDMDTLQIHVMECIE

[18] = molecular target: T3, Heat shock protein HSP90 (Homo sapiens); assay: Inhibition of HSP90 in human MDA-MB-453 cells assessed as downmodulation of IKKgamma expression at 0.25 uM up to 48 hrs by Western blot analysis; format: cell-based
A549 = assay: Antiproliferative activity against human A549 cells by SRB assay; format: functional, cell-based
MDA-MB-453 [19] = assay: Induction of apoptosis in human MDA-MB-453 cells assessed as late apoptotic cells at 4 uM after 48 hrs by Annexin V-FITC/propidium iodide-staining based flow cytometry (reference value: 3.40%); format: functional
MDA-MB-453 [20] = assay: Induction of apoptosis in human MDA-MB-453 cells assessed as late apoptotic cells at 0.25 uM after 48 hrs by Annexin V-FITC/propidium iodide-staining based flow cytometry (reference value: 3.40%); format: functional
[21] = molecular target: T2, MAP kinase p38 (Homo sapiens); assay: Induction of p38 in human MDA-MB-453 cells assessed as upregulation of Hsp27 phosphorylation at Ser82 at 0.25 uM after 2 hrs in presence of […] by Western blot analysis; format: cell-based
[22] = molecular target: Heat shock protein HSP 90-alpha (Homo sapiens) (UniProt P07900); assay: Inhibition of HSP90alpha in human MDA-MB-453 cells assessed as down-regulation of CHK1 levels by Western blot analysis; format: cell-based
MDA-MB-453 [23] = assay: Effect on Bax protein expression in human MDA-MB-453 cells at 0.25 uM incubated for 6 to 48 hrs by Western blot analysis; format: functional, cell-based
[24] = molecular target: T3, Heat shock protein HSP90 (Homo sapiens); assay: Inhibition of HSP90 in human MDA-MB-453 cells assessed as downmodulation of IKKalpha expression at 0.25 uM up to 48 hrs by Western blot analysis; format: cell-based

inhibition [1]: Dose-dependent effect
inhibition [2]: Dose-dependent effect
Activity [5]: Active
inhibition [6]: Dose-dependent effect
Activity [7]: inactive
inhibition [8]: Active
inhibition [9]: Dose-dependent effect
inhibition [12]: Active
Activity [13]: Active
Activity [17]: Active
inhibition [18]: Active
Activity [21]: inactive
inhibition [22]: Dose-dependent effect
inhibition [24]: Active
Structure (SMILES): O=C(NCc1ccncc1)[C@H]1Cc2ccccc2CN1C(=O)c1cc(Cl)c(O)cc1O
Activity (SK-OV-3): Active
Activity (MDA-MB-453 [3]): Dose-dependent effect
Activity (MDA-MB-453 [4]): inactive
Activity (SH-SY5Y): Active
Activity (MDA-MB-453 [10]): Tde
Activity (MDA-MB-453 [11]): 0.03%
Activity (MDA-MB-453 [14]): Active
Activity (MDA-MB-453 [15]): Active
Activity (MDA-MB-453 [16]): Active
Activity (A549): Active
Activity (MDA-MB-453 [19]): 18.32%
Activity (MDA-MB-453 [20]): 4.19%
Activity (MDA-MB-453 [23]): inactive
